This is an account of results in ChEMBL document CHEMBL3430912, “GSK Tres Cantos Anti-Kinetoplastid Screening (TCAKS) Data”.

A word on the IC50: it is the concentration that gives 50% inhibition.

Where only a bound is given, the exact number is not on record here.

Series [1] has as its system Leishmania donovani. Kind of series: GSK_TCAKS: pIC50 Leishmania donovani viability assay using fluorescence intensity. Assay plates (1536-well) were prepared by adding 30nL per well of compound. For single shot assay, the final compound concentration was 5uM. […] Briefly, eGFP LdBOB axenic amastigotes were harvested, fixed and counted in a CASY cell counter (Roche-Applied Science). A final concentration of 1.5 * 10^5 cells per well were prepared in amastigote media containing 500 U/mL penicillin/streptomycin (Invitrogen) and 6uL was dispensed to each experimental well using a Multidrop Combi dispenser (Thermo Scientific). 6uL of assay media was dispensed to control columns used as reference for 100% compound response. Following incubation for 72 h at 37C, 5% CO2, 2 uL of resazurin was added to each well at a final concentration of 0.5 mM in phosphate buffered saline (PBS) with IGEPAL (Sigma-Aldrich), 0.05% (v/v). The class given is functional, organism-based. (The colour change of resazurin is a common sign of viable cells or microbes.)

The test system of series [2] is Trypanosoma cruzi. Kind of series: GSK_TCAKS: pIC50 Trypanosoma cruzi viability assay using beta-GAL activity. This assay was run at single shot at 5uM compound concentration per well. The biological reagents consisted of NIH-3T3 host cells and trypomastigotes parasitic cells; both cell types were set to a 3.3 * 10^5 cells/mL dilution in assay DMEM by means of a CASY cell counter device using a 60um capillary. 6 uL of the mixture were dispensed per well (about 1 * 10^3 host-cells and 1 * 10^3 parasites) with a Multidrop Combi dispenser. […] In all wells, the percentage of DMSO never exceeded 0.5%. Plates incubated for four days at 37C, 5% CO2. The substrate used for the assay fluorescence intensity (FLINT) readout was resorufin-beta-D-galactopiranoside (Sigma-Aldrich) at 5uM per well. It was diluted in PBS supplemented with the soft detergent Igepal (Fluka). The conditions noted are these: Tulahuen, NIH3T3. It counts as functional, organism-based, Mus musculus.

For the next series, the system named is NIH3T3. Description: GSK_TCAKS: pIC50 NIH 3T3 cell line viability assay using luminiscence. Tissue culture surface treated assay plates (1536-well) were used. […] The 100% cells survival control was determined exposing the host-cells to a 0.5% DMSO concentration, whereas the 100% toxicity control was achieved by seeding the cells in presence of Amphotericin B at 50uM. Plates were incubated for four days at 37C, 5% CO2. The assay readout was developed by addition of 5uL of CellTiter-Glo Reagent following the manufacturer's instructions. Luminiscence was measured using a ViewLux. It counts as functional, cell-based. The conditions noted are these: Mus musculus, NIH3T3, 96 h. A general note: In ATP-based viability assays light output follows the ATP content of the culture.

The test system of series [3] is Leishmania donovani. Description: GSK_TCAKS: pIC50 Leishmania donovani Imaging: Infected Macrophages. Assay plates (384-well) were prepared by adding 250nL of compound to each well. For single shot assay, the final compound concentration was 5 uM. […] Automated image analysis was performed with a script developed on Acapella High Content Imaging and Analysis Software (PerkinElmer). Output: Percent of infected macrophage cells were reported for each well. The conditions noted are these: THP-1. It counts as functional, organism-based, Homo sapiens.

For series [4], the system named is Leishmania donovani. Kind of series: GSK_TCAKS: pIC50 Leishmania donovani Imaging: THP-1 Host Macrophages. Assay plates (384-well) were prepared by adding 250nL of compound to each well. For single shot assay, the final compound concentration was 5 uM. […] Automated image analysis was performed with a script developed on Acapella High Content Imaging and Analysis Software (PerkinElmer). Output: THP-1 cell count were reported for each well. It counts as functional, organism-based, Homo sapiens.

The test system of series [5] is Trypanosoma cruzi. Kind of series: (§1) GSK_TCAKS: pIC50 H2C9 Imaging: H9c2 Host Cardiomyocytes. […] Cells were then washed once with PBS before infection. T. cruzi trypomastigotes, collected at days 5 to 8 after infection from LLC-MK2 parasite infected cultures, were allowed to swim out for 4h at 37C from a centrifuged pellet (2,500 rpm/10 min/room temperature). Trypomastigotes were then collected and counted in a CASY Cell Counter. Trypomastigotes, in supplemented DMEM, were added to H9c2 cultures in a multiplicity of infection of 1 and incubated for 18 h. Cells were washed once with PBS before incubation of the infected H9c2 monolayer with trypsin (Life-Technologies) to detach cells from the flask. Cells were counted in a CASY Cell Counter using a 150 um capillary and their density set at 5 * 10^4 cells per mL in supplemented assay DMEM. Infected H9c2 were dispensed into 384-well poly-lysine coated assay plates at 50uL per well using a Multidrop Combi dispenser. After seeding them, the plates were incubated at 37C, 5% CO2 for 72h. Cultures were then fixed and stained by addition of 50 uL of a solution containing 8% formaldehyde and 4 uM DRAQ5 DNA dye (BioStatus, UK) per well. […] Five images were collected per well for reliable statistical analysis. Automated image analysis was performed with a script developed on Acapella High Content Imaging and Analysis Software (PerkinElmer). Output: Number of H9c2 Host Cardiomyocytes nuclei to determine drug-related cytotoxicity. It counts as functional, organism-based, Rattus norvegicus. The conditions noted are these: H9c2, 4 h.

For series [6], the system named is Leishmania donovani. Description: GSK_TCAKS: pIC50 Leishmania donovani Imaging: Amastigotes/Macrophages. Assay plates (384-well) were prepared by adding 250nL of compound to each well. For single shot assay, the final compound concentration was 5 uM. […] Automated image analysis was performed with a script developed on Acapella High Content Imaging and Analysis Software (PerkinElmer). Output: Average number of amastigotes per macrophage cell were reported for each well. It counts as functional, organism-based, Homo sapiens. The settings on record: THP-1.

Series [7] deals with Sterol 14-alpha demethylase (Trypanosoma cruzi (strain CL Brener), UniProt Q7Z1V1). Description: GSK_TCAKS: pIC50 CYP51 from Trypanosoma cruzi. It counts as functional.
Series [8] concerns Trypanosoma brucei brucei. Kind of series: GSK_TCAKS: pIC50 Trypanosoma brucei viability assay using luminiscence. Assay plates (1536-well) were prepared. T. brucei cultures were harvested and counted in a CASY cell counter. A parasite suspension was prepared at a final concentration of 5 * 10^4 cells/mL in complete HMI9 medium and 6uL was dispensed to all wells containing compounds using a Multidrop Combi dispenser. 6uL of HMI9 media with 0.4% DMSO were dispensed to control columns. Plates were incubated for 24 h at 37C, 5% CO2 then tempered for 10 min at room temperature. ATP content was quantified by adding 4 uL of CellTiter-Glo Reagent (Promega) according to the manufacturer's instructions. Luminescence was measured using a ViewLux. The class given is functional, organism-based. The settings on record: Lister 427, CASY.

In series [9] the test system is Trypanosoma cruzi. The series is described as §1, with “Trypanosoma cruzi” for “H2C9”, “Infected Cells.” for “H9c2 Host Cardiomyocytes.”, “percentage” for “Number”, “infected cells per well as a second infection marker.” for “H9c2 Host Cardiomyocytes nuclei to determine drug-related cytotoxicity.”. It counts as functional, organism-based, Rattus norvegicus. The settings on record: H9c2, 4 h.

Series [10] deals with Trypanosoma cruzi. Described as §1, with “Trypanosoma cruzi” for “H2C9”, “Amastigotes/Cell.” for “H9c2 Host Cardiomyocytes.”, “number” for “Number”, “amastigotes per cell as infection level measurement.” for “H9c2 Host Cardiomyocytes nuclei to determine drug-related cytotoxicity.”. The class given is functional, organism-based, Rattus norvegicus. The settings on record: H9c2, 4 h.

The test system of series [11] is Trypanosoma brucei brucei. Kind of series: GSK_TCAKS: pIC50 Trypanosoma brucei viability assay using fluorescence intensity. Assay plates (1536-well) were prepared by dispensing 25nL of compound solution per well using an Echo acoustic dispenser (Labcyte). It counts as functional, organism-based. The conditions noted are these: Lister 427, 2 h.
A short description of series [12]: GSK_TCAKS: pIC50 HepG2 human cell line viability assay using luminiscence. […] Seeding density was checked to ensure that new mono-layers were not more than 50% confluent at the time of harvesting. Cell suspension was added to 500 mL of the same medium at a final density of 1.2 * 10^5 cells/mL. This cell suspension was dispensed (25 uL, 3000 cells per well) into 384-well clear-bottom plates using a Multidrop Combi dispenser. Prior to addition of the cell suspension, the screening compounds (250 nL) were pre-dispensed into the plates with an Echo liquid handler. Plates were incubated for 48 h at 37C, 5% CO2. After incubation, plates equilibrated at room temperature for 30 min before proceeding to develop the luminescent signal. The signal developer, CellTiter-Glo Reagent, was allowed to equilibrate at room temperature for 30 min and added to the plates (25uL per well) using a Multidrop Combi dispenser. Plates were left for 10 min at room temperature for stabilization and then read using a ViewLux. It counts as toxicity, cell-based.

Chain of Sterol 14-alpha demethylase (Q7Z1V1 whole entry): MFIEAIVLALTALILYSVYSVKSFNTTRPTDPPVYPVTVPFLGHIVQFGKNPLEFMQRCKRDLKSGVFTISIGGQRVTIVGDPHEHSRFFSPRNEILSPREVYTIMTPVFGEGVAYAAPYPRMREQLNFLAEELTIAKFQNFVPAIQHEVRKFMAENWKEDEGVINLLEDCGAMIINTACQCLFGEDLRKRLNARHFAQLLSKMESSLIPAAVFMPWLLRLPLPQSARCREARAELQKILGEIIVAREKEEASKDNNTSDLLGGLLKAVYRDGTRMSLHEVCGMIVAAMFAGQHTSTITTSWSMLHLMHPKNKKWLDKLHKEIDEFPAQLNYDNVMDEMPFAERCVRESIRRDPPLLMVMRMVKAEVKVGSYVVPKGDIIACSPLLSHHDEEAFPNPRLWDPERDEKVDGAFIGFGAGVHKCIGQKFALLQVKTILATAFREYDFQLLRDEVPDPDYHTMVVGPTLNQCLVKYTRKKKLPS

In the case of `COc1ccc(S(=O)(=O)NCc2ccc(-c3ccc(CN(C)CCO)cc3)cc2)cc1`, the concentration for half-maximal inhibition (IC50) is over 50.1 µM in the series with Leishmania donovani [1]; 0.0398 µM in the series with Trypanosoma cruzi [2]; 15.8 µM in the series with NIH3T3; 15.8 µM in the series with Leishmania donovani [3]; 20 µM in the series on Leishmania donovani [4]; over 50.1 µM with Trypanosoma cruzi [5]. Also, the half-maximal inhibitory concentration (IC50) was 20 µM in the series on Leishmania donovani [6]; 15.8 µM in [7]; 3.16 µM in series [8]; 2.51 µM in the series on Trypanosoma cruzi [9]; 1.26 µM in the series with Trypanosoma cruzi [10]; 3.16 µM in [11]. Besides, the IC50 at 48 h in [12] was 50.1 µM.

For the compound `CCCN1CCN(Cc2ccc(S(=O)(=O)Nc3cccc(C)c3)cc2)CC1`, the IC50 is 25.1 µM with Leishmania donovani [1]; 0.794 µM in the series on Trypanosoma cruzi [2]; 25.1 µM in the series on NIH3T3; over 50.1 µM in the series on Leishmania donovani [3]; over 50.1 µM with Leishmania donovani [4]; over 50.1 µM with Trypanosoma cruzi [5]. Further, the IC50 is over 50.1 µM in the series on Leishmania donovani [6]; over 100 µM in [7]; over 39.8 µM in series [8]; 0.794 µM in the series with Trypanosoma cruzi [9]; 0.631 µM in the series on Trypanosoma cruzi [10]; 25.1 µM in series [11]. This compound had a half-inhibitory concentration (IC50) at 48 h in series [12] of over 100 µM.

`O=C(CSc1ccc(-c2ccccn2)nn1)Nc1ccc(Cl)cc1`: the half-maximal inhibitory concentration (IC50) was over 50.1 µM in the series on Leishmania donovani [1]; 2.51 µM with Trypanosoma cruzi [2]; 31.6 µM in the series on NIH3T3; over 50.1 µM in the series on Leishmania donovani [3]; over 50.1 µM with Leishmania donovani [4]; over 50.1 µM with Trypanosoma cruzi [5]. In addition, the IC50 is over 50.1 µM in the series with Leishmania donovani [6]; over 100 µM in series [7]; over 39.8 µM in [8]; 2.51 µM with Trypanosoma cruzi [9]; 2 µM with Trypanosoma cruzi [10]; 10 µM in series [11]. The IC50 at 48 h in series [12] was over 100 µM.

For `O=C(Nc1cccc(F)c1)N1CCC(Oc2cccc(-c3cccnc3)c2)CC1`, the IC50 was 0.501 µM in the series with Leishmania donovani [1]; 0.631 µM in the series on Trypanosoma cruzi [2]; 39.8 µM in the series on NIH3T3; over 50.1 µM in the series with Leishmania donovani [3]; 20 µM in the series with Leishmania donovani [4]; 25.1 µM with Trypanosoma cruzi [5]. For the same compound, the concentration for half-maximal inhibition (IC50) with Leishmania donovani [6] is 0.794 µM; in series [7] it was 0.158 µM; in [8], over 39.8 µM; in the series with Trypanosoma cruzi [9], 0.631 µM; in the series on Trypanosoma cruzi [10], 0.501 µM; in series [11], 25.1 µM. For the same compound, the IC50 at 48 h in [12] is over 100 µM.

Consider `O=[N+]([O-])c1cccc(Nc2cncc(-c3ccccc3CO)c2)c1`, for which the IC50 was 39.8 µM with Leishmania donovani [1]; 0.316 µM with Trypanosoma cruzi [2]; 39.8 µM in the series with NIH3T3; over 50.1 µM with Leishmania donovani [3]; over 50.1 µM with Leishmania donovani [4]; over 50.1 µM in the series on Trypanosoma cruzi [5]. The IC50 in the series on Leishmania donovani [6] was over 50.1 µM; in series [7] it was 3.16 µM; in [8], over 39.8 µM; in the series on Trypanosoma cruzi [9], 0.398 µM; with Trypanosoma cruzi [10] it was 0.251 µM; in [11], over 39.8 µM. In addition, the IC50 at 48 h in [12] was over 100 µM.
